Reference: ChEMBL document CHEMBL1201862, “PubChem BioAssay data set” (2004)
Active and inactive are the calls of the source.

Assays:
Format in all cases: functional
[1] = target: T1, G-protein coupled receptor 55 (Homo sapiens, UniProt Q9Y2T6); assay: GPR55 antagonists blocking LPI-driven arrestin recruitment, primary screen, imaging, U2OS, beta-arrestin-GFP, LPI agonist (AID 2013);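 further: antagonist potency measured as reduced agonist-driven arrestin aggregation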
[2] = target: Voltage-dependent T-type calcium channel subunit alpha-1H (Homo sapiens, UniProt O95180);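 further: channel activity triggered by adding a high calcium stimulation buffer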
[3] = target: T1, G-protein coupled receptor 55; assay: GPR55 agonists via beta-arrestin recruitment, primary screen, imaging, U2OS cells, beta-arrestin-GFP redistribution (AID 1961)
[4] = target: T2, Neuropeptides B/W receptor type 1 (Homo sapiens, UniProt P48145); assay: GPR7 antagonist potency, late-stage follow-up, cell-based, fluorescence, dose response (AID 463251)
T2 sequence (P48145 whole entry): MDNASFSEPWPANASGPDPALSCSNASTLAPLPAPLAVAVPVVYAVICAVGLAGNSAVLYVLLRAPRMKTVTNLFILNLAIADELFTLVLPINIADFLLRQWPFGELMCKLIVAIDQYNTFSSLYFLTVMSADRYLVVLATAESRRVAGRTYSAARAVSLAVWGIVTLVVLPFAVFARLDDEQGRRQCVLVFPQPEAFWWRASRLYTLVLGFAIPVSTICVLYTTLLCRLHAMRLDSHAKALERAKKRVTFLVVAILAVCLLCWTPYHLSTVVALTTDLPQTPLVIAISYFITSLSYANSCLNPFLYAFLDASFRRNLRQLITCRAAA

[5] = target: Melanin-concentrating hormone receptor 1 (Homo sapiens, UniProt Q99705); assay: Late-stage fluorescence-based counterscreen for antagonists of the G-protein coupled receptor 7 (GPR7): cell-based dose response assay to identify antagonists of the melanin-concentrating hormone receptor 1 (MCHR1). [Related pubchem assays (depositor defined):AID1861, AID1880, AID1952, AID2148, AID2251, AID2257, AID485339];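 further: stimulated with 30 nM MCH peptide agonist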
[6] = target: Polyadenylate-binding protein 1 (Homo sapiens, UniProt P11940); assay: PABP inhibition in translation initiation, SAR follow-up (AID 435018)
[7] = target: Eukaryotic translation initiation factor 4H (Homo sapiens, UniProt Q15056); assay: eIF4H inhibition in translation initiation, SAR follow-up (AID 435011)

T1 sequence (Q9Y2T6 whole entry): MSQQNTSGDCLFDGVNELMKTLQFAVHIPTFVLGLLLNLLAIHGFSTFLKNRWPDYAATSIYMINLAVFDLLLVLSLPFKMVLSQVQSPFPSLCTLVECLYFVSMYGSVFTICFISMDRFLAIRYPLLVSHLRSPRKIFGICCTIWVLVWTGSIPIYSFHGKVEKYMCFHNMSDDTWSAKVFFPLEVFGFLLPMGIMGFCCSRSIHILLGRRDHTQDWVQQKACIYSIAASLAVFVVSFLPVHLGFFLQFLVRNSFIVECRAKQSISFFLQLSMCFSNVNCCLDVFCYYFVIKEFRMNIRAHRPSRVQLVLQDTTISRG
Sequence of Polyadenylate-binding protein 1 (P11940 whole entry): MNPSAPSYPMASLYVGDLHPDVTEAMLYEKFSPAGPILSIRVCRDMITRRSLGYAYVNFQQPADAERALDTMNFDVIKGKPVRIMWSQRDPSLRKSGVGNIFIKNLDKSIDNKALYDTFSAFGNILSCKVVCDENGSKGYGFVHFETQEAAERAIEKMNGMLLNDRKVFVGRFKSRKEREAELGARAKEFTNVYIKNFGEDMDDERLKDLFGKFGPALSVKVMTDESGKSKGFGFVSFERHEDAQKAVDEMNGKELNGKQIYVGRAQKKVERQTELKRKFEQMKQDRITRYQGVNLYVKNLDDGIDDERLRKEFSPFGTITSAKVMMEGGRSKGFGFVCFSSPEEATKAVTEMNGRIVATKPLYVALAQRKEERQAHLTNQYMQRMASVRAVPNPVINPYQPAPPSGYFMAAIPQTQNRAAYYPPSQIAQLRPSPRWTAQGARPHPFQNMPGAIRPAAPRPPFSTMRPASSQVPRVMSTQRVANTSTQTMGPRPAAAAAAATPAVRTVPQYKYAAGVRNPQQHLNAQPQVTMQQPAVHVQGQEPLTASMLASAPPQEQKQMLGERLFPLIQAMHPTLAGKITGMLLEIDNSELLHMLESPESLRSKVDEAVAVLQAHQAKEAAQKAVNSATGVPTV
Sequence of Voltage-dependent T-type calcium channel subunit alpha-1H (O95180 whole entry): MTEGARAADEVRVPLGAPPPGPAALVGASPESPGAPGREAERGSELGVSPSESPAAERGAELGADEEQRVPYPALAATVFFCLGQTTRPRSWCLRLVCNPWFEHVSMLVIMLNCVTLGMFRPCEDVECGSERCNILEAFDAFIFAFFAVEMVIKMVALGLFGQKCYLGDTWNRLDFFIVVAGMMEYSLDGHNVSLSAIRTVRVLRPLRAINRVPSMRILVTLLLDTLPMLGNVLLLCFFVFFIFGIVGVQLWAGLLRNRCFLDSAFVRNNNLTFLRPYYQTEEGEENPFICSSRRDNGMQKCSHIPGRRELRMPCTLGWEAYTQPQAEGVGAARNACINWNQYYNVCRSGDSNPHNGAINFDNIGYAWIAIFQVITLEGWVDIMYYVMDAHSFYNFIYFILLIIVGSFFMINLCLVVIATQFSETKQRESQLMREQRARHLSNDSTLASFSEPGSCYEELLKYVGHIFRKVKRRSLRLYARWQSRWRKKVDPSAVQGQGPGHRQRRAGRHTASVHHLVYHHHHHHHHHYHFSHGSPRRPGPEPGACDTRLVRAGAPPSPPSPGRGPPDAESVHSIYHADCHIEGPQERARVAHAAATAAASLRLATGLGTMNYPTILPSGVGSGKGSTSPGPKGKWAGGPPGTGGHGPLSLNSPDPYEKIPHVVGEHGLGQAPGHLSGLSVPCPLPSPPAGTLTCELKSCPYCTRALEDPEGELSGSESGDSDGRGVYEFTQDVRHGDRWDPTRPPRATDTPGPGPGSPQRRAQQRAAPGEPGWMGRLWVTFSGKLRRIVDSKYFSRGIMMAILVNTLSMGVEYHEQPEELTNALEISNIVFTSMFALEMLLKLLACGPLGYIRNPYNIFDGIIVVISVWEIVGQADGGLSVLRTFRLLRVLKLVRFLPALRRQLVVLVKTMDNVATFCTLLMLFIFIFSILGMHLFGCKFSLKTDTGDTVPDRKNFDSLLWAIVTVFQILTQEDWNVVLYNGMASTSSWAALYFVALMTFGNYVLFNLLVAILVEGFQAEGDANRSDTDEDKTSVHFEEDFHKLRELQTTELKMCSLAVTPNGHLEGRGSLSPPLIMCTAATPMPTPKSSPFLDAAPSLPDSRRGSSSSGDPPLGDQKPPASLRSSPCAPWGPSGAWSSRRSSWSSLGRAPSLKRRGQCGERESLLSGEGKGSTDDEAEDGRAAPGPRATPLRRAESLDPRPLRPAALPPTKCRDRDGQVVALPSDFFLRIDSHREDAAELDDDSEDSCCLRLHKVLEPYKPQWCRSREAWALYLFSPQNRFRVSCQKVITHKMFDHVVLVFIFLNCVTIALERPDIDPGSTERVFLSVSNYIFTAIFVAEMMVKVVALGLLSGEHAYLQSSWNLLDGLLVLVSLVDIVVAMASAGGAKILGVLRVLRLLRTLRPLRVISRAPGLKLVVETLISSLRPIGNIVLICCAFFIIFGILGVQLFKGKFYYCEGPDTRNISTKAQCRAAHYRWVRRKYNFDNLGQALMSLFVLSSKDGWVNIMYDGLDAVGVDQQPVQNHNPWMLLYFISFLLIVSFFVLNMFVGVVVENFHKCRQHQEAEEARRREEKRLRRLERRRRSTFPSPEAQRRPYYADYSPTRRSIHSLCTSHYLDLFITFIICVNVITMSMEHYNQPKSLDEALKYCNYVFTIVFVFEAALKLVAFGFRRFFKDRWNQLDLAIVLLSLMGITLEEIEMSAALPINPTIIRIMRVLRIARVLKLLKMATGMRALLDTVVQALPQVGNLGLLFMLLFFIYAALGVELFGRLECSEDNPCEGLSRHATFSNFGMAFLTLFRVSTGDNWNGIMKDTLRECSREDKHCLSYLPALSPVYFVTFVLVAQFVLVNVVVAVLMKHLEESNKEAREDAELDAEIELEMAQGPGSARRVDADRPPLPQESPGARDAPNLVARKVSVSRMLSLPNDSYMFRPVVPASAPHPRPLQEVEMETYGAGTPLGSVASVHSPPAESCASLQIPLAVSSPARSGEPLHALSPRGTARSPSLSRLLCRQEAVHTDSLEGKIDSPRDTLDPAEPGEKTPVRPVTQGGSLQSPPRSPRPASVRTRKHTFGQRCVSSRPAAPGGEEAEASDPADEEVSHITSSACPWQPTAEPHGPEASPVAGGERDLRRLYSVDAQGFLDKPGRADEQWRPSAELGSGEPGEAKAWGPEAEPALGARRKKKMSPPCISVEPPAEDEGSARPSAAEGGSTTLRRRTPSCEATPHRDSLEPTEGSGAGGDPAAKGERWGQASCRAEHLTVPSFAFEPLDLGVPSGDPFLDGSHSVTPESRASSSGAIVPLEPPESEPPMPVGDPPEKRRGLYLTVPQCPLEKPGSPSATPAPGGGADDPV
Sequence of Melanin-concentrating hormone receptor 1 (Q99705 whole entry): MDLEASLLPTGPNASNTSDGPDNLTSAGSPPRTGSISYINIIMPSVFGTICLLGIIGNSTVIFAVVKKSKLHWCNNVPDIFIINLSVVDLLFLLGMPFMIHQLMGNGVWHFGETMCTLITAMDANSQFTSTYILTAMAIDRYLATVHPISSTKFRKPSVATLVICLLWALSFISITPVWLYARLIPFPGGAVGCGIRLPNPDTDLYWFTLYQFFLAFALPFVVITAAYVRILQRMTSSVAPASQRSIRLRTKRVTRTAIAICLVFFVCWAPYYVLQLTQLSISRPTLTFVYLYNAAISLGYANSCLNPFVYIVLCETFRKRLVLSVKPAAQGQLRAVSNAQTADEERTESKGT

CCN(c1ccccc1)S(=O)(=O)c1ccc(NCC2COc3ccccc3O2)nc1 (configuration not stated) was tested, and the IC50 [1] was 6.56 µM (active) and the EC50 [2] was 7.97 µM (active).
With COc1cc2c(cc1NC(=O)CSc1ccc(Cl)cc1)oc1ccccc12 the EC50 [3] was 20.7 µM (inactive).
For CC(C)c1ccc(-n2ncc(Cl)c(Oc3cccc(N(C)C)c3)c2=O)cc1, the IC50 [4] was 1.6 µM (active) and the IC50 [5] was 3.1 µM (active).
In the case of COc1ccc([N+](=O)[O-])cc1NC(=O)COC(=O)c1ccccc1C(=O)c1ccccc1, the IC50 [6] was > 100 µM (inactive) and the IC50 [7] was > 100 µM (inactive).
